Data on 4 molecules can be found in US11173192B2 (priority 2016, dated 2021).

Where no end group is shown, it is not given here.

Data set [1] deals with T1, interaction between PCBP2 and MAVS (Homo sapiens, UniProt Q15366).
T1 construct: FLAG-, Strep-, His-, or GST-tagged full-length and truncated PCBP2 were also prepared; expressed in transfected cells; host or cells: 293T
In words: GST precipitation of the PCBP2-MAVS interaction in 293T cells with various amounts of EPRS. The data set is classed as cell-based. To be noted: 293T cells transfected with MAVS and PCBP2, various amounts of EPRS.

In data set [2] the test system is MAVS. To be noted: PCBP2-transfected 293T cells, various concentrations of EPRS.
Protocol: For immunoblotting analysis, cells were lysed with RIPA buffer (20 mM Tris-HCl, pH 7.4, 150 mM NaCl, 1% NP-40, and 1 mM EDTA) containing a protease inhibitor cocktail and a phosphatase inhibitor cocktail (Roche). Whole cell lysates (50 μg to 100 μg) were subjected to SDS-PAGE, followed by immunoblotting with respective antibodies.
The target of data set [3] is T2, binding of PCBP2 to ITCH E3 ligase (Homo sapiens, UniProt Q15366).
T2 construct: FLAG-, Strep-, His-, or GST-tagged full-length and truncated PCBP2 were also prepared; expressed in transfected cells
Briefly: GST precipitation of the PCBP2-ITCH interaction in the presence of EPRS. The data set is classed as cell-based.

In data set [4] the test system is MAVS. To be noted: 293T cells expressing EPRS, PCBP2, ITCH, Ub; MG-132.
The subject of the next data set is VSV-Indiana. More on the design: species or system mice. To be noted: in vivo, iv.
The test system of data set [5] is VSV-infected RAW264.7 cells. It is filed as cell-based.
For another data set, the system named is VSV. The data set is classed as cell-based, vesicular stomatitis virus (VSV).
For a further data set, the system named is 293T cells. Briefly: MTS cytotoxicity assay, 293T cells. It is filed as cell-based. Particulars: 12 or 24 hours. As to the method:
(§1) HEK293T or RAW264.7 cells were seeded in 96-well plates (10,000 per well) before treatment with Tat-Epep (20-200 μM) for 0-24 hours. Cytotoxicity was determined in a colorimetric assay using MTS [3-(4,5-dimethylthiazole-2-yl)-5-(carboxymethoxyphenyl)-2-(4-sulfophenyl)-2H-tetrazolium salt] (Promega) 20 μL of MTS was added to each well at 37° C. for 1 hour. Optical density at 490 nm was recorded using an automated microplate reader (BioTek). Background absorbance at 630 nm was subtracted from each sample reading.
(Tetrazolium assays rely on reduction of a dye to a coloured formazan, in cell work by metabolically active cells.)

Another data set deals with RAW264.7 cells. Briefly: MTS cytotoxicity assay, RAW264.7 cells. Particulars: various concentrations, 12 hours. It is filed as cell-based. As to the method: as §1
A further data set concerns the target PCBP2 KH1 (aa 11-82) (Homo sapiens, UniProt Q15366). Briefly: In vitro pull-down of purified EPRS domains with PCBP2 KH1. Particulars: purified His-tagged EPRS domains, GST-fused PCBP2 KH1.
For the next data set, the target named is T3, PCBP2 (Homo sapiens, UniProt Q15366).
T3 construct: FLAG-, Strep-, His-, or GST-tagged full-length and truncated PCBP2 were also prepared; expressed in transfected cells; host or cells: 293T
In words: Co-IP of EPRS or its fragments with PCBP2 in 293T cells. The data set is classed as binding. Particulars: 293T cells transfected with PCBP2 and EPRS plasmids. As to the method:
For immunoprecipitation, cell lysates were pre-cleared by incubation with protein A beads for 1 hour at 4° C. The pre-cleared cell lysates were incubated overnight at 4° C. with the respective antibodies, followed by incubation with 30 μL of protein A/G PLUS-agarose beads for 3 to 4 hours at 4° C. The immunoprecipitates were then collected and washed five times with a lysis buffer before immunoblotting analysis.

Sequence of PCBP2 KH1 (aa 11-82) (Q15366 11-82): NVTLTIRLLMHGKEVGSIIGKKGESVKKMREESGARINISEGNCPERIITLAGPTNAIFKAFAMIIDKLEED
T1 sequence (Q15366 whole entry, the tested form may be a part): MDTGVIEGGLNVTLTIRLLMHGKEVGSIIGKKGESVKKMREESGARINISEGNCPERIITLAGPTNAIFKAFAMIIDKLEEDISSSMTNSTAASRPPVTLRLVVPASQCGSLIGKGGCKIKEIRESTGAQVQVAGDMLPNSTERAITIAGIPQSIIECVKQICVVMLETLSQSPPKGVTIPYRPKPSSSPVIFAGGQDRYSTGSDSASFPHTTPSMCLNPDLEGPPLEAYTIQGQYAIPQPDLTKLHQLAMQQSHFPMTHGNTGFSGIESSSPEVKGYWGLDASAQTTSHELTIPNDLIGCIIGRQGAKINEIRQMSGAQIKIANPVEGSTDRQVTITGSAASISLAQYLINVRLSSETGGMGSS
T3 sequence (Q15366 whole entry, species assumed, the tested form may be a part): as the sequence (Q15366 whole entry, the tested form may be a part) above
T2 sequence (Q15366 whole entry, the tested form may be a part): as above
T2 sequence (Q96J02 whole entry partner, the tested form may be a part): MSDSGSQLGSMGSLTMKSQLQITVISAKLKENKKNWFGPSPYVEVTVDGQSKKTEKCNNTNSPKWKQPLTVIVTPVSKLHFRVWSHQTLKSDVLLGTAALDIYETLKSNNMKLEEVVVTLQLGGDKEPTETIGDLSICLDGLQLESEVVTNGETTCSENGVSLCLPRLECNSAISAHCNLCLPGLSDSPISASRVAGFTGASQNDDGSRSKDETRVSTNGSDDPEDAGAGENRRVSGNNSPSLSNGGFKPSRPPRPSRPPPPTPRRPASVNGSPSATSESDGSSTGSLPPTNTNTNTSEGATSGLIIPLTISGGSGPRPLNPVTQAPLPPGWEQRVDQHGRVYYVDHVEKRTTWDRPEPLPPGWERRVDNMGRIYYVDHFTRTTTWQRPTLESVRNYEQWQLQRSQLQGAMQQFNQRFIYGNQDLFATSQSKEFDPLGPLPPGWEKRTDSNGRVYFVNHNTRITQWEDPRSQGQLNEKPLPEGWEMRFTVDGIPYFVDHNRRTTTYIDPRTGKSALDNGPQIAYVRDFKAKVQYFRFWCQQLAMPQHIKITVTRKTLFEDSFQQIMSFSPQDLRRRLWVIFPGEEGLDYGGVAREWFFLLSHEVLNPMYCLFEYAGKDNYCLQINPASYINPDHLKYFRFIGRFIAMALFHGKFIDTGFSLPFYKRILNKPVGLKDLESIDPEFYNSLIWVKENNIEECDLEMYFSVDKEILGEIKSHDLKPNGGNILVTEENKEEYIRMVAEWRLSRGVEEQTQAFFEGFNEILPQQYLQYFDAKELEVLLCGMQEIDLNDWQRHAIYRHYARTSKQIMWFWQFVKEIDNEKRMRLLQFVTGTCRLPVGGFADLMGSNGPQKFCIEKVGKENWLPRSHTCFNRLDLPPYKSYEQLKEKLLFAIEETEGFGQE

As to “EPRS: glutamyl-prolyl-tRNA synthetase protein, 1512 aa, SEQ ID NO: 63; expressed from plasmid or purified”, the “interaction between PCBP2 and MAVS” value in [1] was “significantly reduced”. Moreover, in the data set on MAVS [2], the “PCBP2-induced degradation of endogenous MAVS” value is listed as “rescued from this degradation” and the “PCBP2-induced degradation of exogenous MAVS” value is listed as “rescued from this degradation”. In [3], the “binding of PCBP2 to ITCH E3 ligase” value is recorded as “did not disrupt the binding of PCBP2 to ITCH E3 ligase”. In the data set on MAVS [4], the “PCBP2-mediated ubiquitination of exogenous MAVS-FLAG” value is “inhibited PCBP2-mediated ubiquitination of MAVS in a dose-dependent manner” and the “endogenous ubiquitination of MAVS” value is “significantly attenuated in the presence of EPRS”.

As to “YGRKKRRQRRR-GG-KWDVSTTKARVAPEKKQDVGK (YGRKKRRQRRRGGKWDVSTTKARVAPEKKQDVGK; New Tat-Epep)”, the “VSV viral titers in mouse brains” value with VSV-Indiana is “decrease VSV viral titers in the mouse brains”. In [5], the “increase in IFN-β secretion as compared with Tat-Epep” value was 2- to 3 fold and the “increase in IL-6 secretion as compared with Tat-Epep” value is reported as 2- to 3 fold. The “viral replication (fluorescence images)” value in the data set with VSV was “stronger inhibitory effect”.

Turning to “YGRKKRRQRRRGGDVSTTKARVAPEKKQDVGKFVELPGAEMG [Tat-Epep]”, the “viability of 293T cells” value in the data set with 293T cells was “no effect on the viability”. Further, in the data set on RAW264.7 cells, the “viability of RAW264.7 cells” value was “no effect on the viability”.

B1: EPRS (aa 1-196): N-terminal EPRS fragment containing GST-like domain and linker region L1 (protein)
chain: MATLSLTVNSGDPPLGALLAVEHVKDDVSISVEEGKENILHVSENVIFTDVNSILRYLARVATTAGLYGSNLMEHTEIDHWLEFSATKLSSCDSFTSTINELNHCLSLRTYLVGNSLSLADLCVWATLKGNAAWQEQLKQKKAPVHVKRWFGFLEAQQAFQSVGTKWDVSTTKARVAPEKKQDVGKFVELPGAEMG
Consider B1, for which, in the data set with PCBP2 KH1 (aa 11-82), the “direct interaction with PCBP2 KH1 (in vitro precipitation)” value was “specifically interacted”. Further, the “interaction with PCBP2 (co-IP)” value with PCBP2 was “crucial for the interaction with PCBP2”.
